From ChEMBL document CHEMBL4825762, “Identification, Synthesis, and Characterization of a Major Circulating Human Metabolite of TRPV4 Antagonist GSK2798745” (ACS Med Chem Lett, 2021)
The source made the active and inactive calls. The rule behind the calls is not given here.

Tests used:
[1] = molecular target: Transient receptor potential cation channel subfamily V member 4 (Homo sapiens, UniProt Q9HBA0); assay: Antagonist activity at human TRPV4
[2] = Chromatographic hydrophobicity index, log D of the compound; format: physicochemical
[3] = Permeability of the compound; format: ADME; conditions: not told; read-out: permeability
[4] = molecular target: Transient receptor potential cation channel subfamily M member 8 (Homo sapiens) (UniProt Q7Z2W7); assay: Antagonist activity at human TRPM8 at <= 30 uM; conditions: dose microM <=30
[5] = molecular target: Transient receptor potential cation channel subfamily V member 1 (Homo sapiens) (UniProt Q8NER1); assay: Antagonist activity at human TRPV1 at <= 30 uM; conditions: dose microM <=30
Sequence of Transient receptor potential cation channel subfamily V member 1 (Homo sapiens) (Q8NER1 whole entry): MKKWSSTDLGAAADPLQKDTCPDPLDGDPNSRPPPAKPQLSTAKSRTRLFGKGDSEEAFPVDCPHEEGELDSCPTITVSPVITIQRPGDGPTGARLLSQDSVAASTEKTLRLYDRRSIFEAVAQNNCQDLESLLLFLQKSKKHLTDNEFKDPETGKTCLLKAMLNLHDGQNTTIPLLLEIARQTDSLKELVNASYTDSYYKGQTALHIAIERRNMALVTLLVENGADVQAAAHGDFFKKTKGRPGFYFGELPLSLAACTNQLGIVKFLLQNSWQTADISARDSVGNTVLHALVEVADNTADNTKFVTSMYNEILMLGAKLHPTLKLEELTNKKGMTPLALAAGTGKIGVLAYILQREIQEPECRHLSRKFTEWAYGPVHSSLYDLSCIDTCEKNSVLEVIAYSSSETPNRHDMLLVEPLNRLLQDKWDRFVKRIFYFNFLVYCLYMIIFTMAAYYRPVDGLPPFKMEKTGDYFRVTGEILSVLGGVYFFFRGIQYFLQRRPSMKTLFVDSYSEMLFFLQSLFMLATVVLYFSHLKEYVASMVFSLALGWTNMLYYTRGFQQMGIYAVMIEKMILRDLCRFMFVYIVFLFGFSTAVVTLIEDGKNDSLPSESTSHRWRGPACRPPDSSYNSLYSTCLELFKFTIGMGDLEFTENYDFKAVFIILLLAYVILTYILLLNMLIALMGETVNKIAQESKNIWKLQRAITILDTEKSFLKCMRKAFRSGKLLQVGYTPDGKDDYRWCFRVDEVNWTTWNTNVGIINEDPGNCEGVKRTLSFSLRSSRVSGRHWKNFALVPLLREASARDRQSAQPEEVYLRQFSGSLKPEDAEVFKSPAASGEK

[6] = molecular target: T1, Short transient receptor potential channel 6 (Homo sapiens) (UniProt Q9Y210); assay: Antagonist activity at human TRPC6 at <= 30 uM; conditions: dose microM <=30
T1 sequence (whole entry): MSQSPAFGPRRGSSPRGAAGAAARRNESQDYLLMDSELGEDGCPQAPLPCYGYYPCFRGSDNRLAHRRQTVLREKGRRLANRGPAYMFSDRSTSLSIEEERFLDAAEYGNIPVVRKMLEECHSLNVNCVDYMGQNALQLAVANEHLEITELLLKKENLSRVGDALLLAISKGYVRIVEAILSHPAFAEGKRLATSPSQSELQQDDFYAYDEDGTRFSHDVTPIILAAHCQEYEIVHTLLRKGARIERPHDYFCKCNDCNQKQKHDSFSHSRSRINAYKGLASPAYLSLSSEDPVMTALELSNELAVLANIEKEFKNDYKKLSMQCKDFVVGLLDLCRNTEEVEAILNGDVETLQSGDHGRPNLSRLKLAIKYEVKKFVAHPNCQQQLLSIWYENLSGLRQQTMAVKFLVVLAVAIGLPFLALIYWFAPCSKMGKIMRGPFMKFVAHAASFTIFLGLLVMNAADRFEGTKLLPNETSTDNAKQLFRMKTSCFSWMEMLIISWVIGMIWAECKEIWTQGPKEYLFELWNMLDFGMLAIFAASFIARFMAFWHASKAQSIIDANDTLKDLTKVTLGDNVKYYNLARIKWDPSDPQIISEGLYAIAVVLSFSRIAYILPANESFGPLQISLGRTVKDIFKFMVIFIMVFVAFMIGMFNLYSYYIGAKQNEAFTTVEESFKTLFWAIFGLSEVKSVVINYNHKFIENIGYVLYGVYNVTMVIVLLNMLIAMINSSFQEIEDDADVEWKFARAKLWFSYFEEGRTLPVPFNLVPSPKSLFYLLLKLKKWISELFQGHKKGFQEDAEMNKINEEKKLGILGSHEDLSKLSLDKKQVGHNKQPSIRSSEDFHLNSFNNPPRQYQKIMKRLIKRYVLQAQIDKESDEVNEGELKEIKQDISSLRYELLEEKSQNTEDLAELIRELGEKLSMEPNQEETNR

Cytochrome P450 3A4 = Cytochrome P450 3A4 (Homo sapiens, UniProt P08684); assay: Inhibition of CYP3A4 (unknown origin) at <= 10 uM; format: ADME
Sequence of Cytochrome P450 3A4 (P08684 whole entry): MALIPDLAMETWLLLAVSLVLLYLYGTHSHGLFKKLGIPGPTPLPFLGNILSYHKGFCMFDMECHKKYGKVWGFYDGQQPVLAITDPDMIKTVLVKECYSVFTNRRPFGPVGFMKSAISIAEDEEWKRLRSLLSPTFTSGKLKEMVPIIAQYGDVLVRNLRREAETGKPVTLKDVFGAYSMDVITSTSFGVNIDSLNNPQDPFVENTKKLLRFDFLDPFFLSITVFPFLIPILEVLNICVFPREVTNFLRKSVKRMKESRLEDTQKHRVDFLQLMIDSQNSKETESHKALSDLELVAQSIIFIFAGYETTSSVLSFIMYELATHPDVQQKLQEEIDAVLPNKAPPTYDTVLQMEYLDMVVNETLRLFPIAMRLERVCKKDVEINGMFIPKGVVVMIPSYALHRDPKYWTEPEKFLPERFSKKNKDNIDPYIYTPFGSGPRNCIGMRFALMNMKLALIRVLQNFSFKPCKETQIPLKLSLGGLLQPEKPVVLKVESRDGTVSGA

[7] = molecular target: T2, Short transient receptor potential channel 4 (Homo sapiens) (UniProt Q9UBN4); assay: Antagonist activity at human TRPC4 at <= 30 uM; conditions: dose microM <=30
T2 sequence (whole entry): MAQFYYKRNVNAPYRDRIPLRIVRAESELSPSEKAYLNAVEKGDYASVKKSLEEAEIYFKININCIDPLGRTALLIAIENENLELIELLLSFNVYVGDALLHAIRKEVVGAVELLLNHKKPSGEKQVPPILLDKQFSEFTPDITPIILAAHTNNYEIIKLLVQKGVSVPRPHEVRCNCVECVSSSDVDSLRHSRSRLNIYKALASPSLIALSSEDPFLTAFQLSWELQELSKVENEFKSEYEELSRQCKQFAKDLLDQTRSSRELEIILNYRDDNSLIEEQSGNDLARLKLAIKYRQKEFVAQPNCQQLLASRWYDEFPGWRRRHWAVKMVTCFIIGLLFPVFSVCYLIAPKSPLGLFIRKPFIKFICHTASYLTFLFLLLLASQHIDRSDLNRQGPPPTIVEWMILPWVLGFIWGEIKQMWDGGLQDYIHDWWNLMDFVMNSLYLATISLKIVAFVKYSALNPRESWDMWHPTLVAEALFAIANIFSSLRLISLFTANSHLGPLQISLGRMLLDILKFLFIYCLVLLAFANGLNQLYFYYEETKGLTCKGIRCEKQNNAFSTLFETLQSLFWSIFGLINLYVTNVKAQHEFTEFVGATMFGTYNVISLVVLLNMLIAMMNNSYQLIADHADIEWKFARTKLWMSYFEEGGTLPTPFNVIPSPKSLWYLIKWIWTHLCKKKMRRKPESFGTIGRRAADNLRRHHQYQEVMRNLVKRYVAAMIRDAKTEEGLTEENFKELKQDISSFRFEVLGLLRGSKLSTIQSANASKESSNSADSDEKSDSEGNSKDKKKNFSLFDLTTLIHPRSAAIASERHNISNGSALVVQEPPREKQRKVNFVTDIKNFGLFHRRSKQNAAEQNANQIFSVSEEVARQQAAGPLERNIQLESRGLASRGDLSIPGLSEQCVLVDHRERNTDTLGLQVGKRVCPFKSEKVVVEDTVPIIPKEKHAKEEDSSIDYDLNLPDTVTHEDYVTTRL

[8] = molecular target: Voltage-gated inwardly rectifying potassium channel KCNH2 (Homo sapiens, UniProt Q12809); assay: Inhibition of human ERG at <= 10 uM
[9] = molecular target: T3, Short transient receptor potential channel 3 (Homo sapiens) (UniProt Q13507); assay: Antagonist activity at human TRPC3 at <= 30 uM; conditions: dose microM <=30
T3 sequence (whole entry): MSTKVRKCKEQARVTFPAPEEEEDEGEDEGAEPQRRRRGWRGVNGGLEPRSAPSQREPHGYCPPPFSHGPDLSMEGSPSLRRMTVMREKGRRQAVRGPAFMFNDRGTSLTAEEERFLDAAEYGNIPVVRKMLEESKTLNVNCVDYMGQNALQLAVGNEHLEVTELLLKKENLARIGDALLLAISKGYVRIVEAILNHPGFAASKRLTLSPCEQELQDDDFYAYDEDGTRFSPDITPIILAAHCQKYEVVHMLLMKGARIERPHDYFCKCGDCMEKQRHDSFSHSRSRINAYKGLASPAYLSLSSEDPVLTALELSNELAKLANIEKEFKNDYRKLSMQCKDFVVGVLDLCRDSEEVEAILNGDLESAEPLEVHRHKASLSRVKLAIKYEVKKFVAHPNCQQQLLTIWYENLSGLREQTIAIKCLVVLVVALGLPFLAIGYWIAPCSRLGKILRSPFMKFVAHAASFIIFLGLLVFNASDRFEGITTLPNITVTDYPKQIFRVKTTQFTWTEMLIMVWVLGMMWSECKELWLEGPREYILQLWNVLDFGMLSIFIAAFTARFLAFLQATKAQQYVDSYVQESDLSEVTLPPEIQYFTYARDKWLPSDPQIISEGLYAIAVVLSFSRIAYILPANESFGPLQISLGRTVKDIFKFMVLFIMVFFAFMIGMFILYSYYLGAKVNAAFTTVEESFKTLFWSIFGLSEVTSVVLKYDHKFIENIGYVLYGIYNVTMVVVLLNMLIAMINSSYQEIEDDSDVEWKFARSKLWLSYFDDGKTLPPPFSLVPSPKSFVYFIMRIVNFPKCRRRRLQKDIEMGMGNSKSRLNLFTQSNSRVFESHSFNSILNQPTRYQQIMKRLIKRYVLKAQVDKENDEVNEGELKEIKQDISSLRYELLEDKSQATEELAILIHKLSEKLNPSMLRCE

[10] = molecular target: Transient receptor potential cation channel subfamily M member 4 (Homo sapiens) (UniProt Q8TD43); assay: Antagonist activity at human TRPM4 at <= 30 uM; conditions: dose microM <=30
Sequence of Transient receptor potential cation channel subfamily M member 4 (Homo sapiens) (Q8TD43 whole entry): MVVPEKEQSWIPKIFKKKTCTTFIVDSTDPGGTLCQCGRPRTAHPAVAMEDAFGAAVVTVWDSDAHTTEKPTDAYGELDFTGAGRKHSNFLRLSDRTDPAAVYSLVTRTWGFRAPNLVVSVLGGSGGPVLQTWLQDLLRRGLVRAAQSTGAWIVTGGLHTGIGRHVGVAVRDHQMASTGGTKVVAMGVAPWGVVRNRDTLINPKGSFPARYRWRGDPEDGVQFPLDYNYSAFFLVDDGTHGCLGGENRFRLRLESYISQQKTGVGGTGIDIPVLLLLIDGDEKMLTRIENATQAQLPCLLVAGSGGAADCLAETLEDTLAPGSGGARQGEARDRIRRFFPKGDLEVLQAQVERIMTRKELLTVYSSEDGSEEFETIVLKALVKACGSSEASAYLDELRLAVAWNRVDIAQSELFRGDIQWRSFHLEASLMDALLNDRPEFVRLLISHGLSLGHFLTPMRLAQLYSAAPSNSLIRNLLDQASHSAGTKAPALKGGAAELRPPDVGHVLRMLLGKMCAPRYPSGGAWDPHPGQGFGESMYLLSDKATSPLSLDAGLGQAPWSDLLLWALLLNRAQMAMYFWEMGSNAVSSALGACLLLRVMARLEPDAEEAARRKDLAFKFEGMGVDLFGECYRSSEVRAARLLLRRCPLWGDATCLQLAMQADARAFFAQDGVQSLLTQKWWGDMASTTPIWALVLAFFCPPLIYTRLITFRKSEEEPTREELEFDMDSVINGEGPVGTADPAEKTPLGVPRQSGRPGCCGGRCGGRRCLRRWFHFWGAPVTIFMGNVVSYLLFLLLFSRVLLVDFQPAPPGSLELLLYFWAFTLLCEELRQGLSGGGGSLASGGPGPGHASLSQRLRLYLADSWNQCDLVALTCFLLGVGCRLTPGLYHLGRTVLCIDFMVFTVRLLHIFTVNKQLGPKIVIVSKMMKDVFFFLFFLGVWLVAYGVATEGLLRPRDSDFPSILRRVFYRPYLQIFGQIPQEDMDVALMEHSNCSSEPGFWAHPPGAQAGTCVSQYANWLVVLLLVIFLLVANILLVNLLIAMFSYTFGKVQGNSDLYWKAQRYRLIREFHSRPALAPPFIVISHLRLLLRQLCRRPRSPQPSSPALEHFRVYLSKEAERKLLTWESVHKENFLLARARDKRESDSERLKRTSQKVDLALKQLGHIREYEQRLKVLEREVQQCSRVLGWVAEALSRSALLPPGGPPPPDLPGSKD

[11] = molecular target: Transient receptor potential cation channel subfamily M member 2 (Homo sapiens) (UniProt O94759); assay: Antagonist activity at human TRPM2 at <= 30 uM; conditions: dose microM <=30
[12] = molecular target: T4, Short transient receptor potential channel 5 (Homo sapiens) (UniProt Q9UL62); assay: Antagonist activity at human TRPC5 at <= 30 uM; conditions: dose microM <=30
T4 sequence (whole entry): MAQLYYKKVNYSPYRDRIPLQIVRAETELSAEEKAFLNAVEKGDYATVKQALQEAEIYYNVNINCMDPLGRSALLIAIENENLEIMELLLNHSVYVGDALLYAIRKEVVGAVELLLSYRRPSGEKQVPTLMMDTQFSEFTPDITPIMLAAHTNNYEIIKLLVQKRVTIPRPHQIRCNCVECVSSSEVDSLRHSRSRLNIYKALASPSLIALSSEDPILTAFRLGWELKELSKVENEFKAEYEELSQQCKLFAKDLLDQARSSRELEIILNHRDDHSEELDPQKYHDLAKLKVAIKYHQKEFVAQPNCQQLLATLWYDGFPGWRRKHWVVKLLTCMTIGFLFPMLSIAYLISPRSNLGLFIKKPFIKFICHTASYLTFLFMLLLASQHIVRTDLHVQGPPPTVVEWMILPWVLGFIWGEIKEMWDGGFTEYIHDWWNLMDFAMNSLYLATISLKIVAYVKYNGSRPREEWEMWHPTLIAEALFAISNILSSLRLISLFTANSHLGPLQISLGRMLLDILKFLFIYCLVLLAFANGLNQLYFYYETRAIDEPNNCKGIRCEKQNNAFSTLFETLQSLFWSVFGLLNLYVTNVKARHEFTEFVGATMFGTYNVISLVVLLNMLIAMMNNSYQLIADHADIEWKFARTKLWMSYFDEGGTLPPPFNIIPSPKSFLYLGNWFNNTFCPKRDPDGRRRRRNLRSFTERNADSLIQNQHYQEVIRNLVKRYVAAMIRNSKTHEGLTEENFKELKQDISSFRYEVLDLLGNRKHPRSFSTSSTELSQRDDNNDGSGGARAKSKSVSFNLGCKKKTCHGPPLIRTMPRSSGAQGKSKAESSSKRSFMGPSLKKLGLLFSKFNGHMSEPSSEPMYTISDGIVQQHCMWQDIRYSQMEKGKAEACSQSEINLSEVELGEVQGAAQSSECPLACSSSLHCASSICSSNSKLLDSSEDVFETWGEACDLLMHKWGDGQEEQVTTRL

[13] = molecular target: Transient receptor potential cation channel subfamily A member 1 (Homo sapiens) (UniProt O75762); assay: Antagonist activity at human TRPA1 at <= 30 uM; conditions: dose microM <=30
Sequence of Transient receptor potential cation channel subfamily A member 1 (Homo sapiens) (O75762 whole entry): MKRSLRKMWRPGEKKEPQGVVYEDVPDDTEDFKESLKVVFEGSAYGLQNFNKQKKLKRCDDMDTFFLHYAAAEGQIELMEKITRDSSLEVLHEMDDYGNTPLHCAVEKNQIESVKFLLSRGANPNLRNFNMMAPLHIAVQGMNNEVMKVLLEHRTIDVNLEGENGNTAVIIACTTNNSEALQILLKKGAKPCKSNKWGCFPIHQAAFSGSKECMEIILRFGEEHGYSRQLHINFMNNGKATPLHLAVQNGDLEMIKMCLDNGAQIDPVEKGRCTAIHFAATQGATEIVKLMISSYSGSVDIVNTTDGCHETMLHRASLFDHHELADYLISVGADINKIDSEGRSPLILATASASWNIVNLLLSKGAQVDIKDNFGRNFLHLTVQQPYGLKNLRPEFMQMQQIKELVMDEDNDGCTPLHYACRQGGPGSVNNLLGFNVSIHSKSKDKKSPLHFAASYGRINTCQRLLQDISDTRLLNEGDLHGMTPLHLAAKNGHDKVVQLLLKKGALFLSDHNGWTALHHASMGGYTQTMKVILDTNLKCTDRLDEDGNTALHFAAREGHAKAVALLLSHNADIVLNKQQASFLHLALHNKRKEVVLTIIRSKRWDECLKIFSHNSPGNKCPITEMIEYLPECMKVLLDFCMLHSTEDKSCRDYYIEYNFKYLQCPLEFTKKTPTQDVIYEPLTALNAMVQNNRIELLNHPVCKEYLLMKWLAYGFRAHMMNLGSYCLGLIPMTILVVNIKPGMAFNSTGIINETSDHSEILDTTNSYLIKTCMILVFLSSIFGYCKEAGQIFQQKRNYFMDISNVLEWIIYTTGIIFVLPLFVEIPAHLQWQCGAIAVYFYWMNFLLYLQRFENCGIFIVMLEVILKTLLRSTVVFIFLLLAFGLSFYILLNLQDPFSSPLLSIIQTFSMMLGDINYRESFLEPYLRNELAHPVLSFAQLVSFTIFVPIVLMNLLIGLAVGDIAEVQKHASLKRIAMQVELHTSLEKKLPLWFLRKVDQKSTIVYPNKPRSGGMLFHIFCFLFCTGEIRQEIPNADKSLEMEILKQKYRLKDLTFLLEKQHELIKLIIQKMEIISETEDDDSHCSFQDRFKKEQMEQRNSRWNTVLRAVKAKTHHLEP

Sequence of Transient receptor potential cation channel subfamily V member 4 (Q9HBA0 whole entry): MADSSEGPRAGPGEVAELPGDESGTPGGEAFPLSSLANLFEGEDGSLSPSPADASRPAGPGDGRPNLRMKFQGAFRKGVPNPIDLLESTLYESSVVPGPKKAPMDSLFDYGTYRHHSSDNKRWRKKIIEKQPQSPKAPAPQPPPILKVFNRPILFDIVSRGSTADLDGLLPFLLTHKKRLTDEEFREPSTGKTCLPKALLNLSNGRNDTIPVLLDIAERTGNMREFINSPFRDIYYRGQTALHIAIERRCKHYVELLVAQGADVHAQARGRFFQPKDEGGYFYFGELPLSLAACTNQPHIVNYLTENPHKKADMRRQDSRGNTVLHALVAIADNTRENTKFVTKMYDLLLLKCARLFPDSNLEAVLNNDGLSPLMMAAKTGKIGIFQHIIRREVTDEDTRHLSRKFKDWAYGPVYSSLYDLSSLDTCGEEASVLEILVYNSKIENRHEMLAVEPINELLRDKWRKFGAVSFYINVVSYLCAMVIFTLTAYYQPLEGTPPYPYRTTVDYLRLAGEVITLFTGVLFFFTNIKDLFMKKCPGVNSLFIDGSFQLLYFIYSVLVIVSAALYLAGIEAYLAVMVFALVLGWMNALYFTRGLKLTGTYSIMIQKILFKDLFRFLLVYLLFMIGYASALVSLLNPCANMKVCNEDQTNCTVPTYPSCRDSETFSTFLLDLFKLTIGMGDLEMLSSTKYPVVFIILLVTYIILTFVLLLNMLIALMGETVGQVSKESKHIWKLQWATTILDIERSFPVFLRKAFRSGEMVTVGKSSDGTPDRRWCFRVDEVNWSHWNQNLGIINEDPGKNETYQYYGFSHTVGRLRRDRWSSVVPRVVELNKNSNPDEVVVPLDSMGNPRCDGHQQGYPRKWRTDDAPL

SMILES | IC50 [1] | chromatographic logD [2] | Papp [3] | Activity [4] | Activity [5] | Activity [6] | inhibition (INH) (Cytochrome P450 3A4) | Activity [7] | inhibition (INH) [8] | Activity [9] | Activity [10] | Activity [11] | Activity [12] | Activity [13]
CC(C)(O)c1cnc(N2C[C@@]3(CCC[C@](C)(Cn4cnc5ccc(C#N)cc54)C3)OC2=O)cn1 [GSK2798745] | 2 nM | 4 | 38.5 ×10⁻⁶ cm/s | – | – | – | – | – | – | – | – | – | – | –
CC(C)(O)c1cnc(N2C[C@@]3(CC[C@@H](O)[C@](C)(Cn4cnc5ccc(C#N)cc54)C3)OC2=O)cn1 | 56 nM | 2.6 | 3.2 ×10⁻⁶ cm/s | inactive | inactive | inactive | Not Active | inactive | Not Active | inactive | inactive | inactive | inactive | inactive
